Experimental data reported in patent US6955921B2, “Trypsin substrate and diagnostic device, and method of using same” (Bayer Corporation, priority 2001, dated 2005).
Where “and” joins values, the source holds several entries; their conditions need not be identical. Identical values can stand only once. Values belong to the compound of their own block, whether it stands above or below them.

Columns and labels:
[1] = molecular target: T1, Bovine Pancreatic Trypsin (Bos taurus, UniProt P00760); assay: Dry-phase analytical element for trypsin detection, fluorescence under 365 nm UV; format: biochemical; conditions: within one minute
T1 construct: purchased Calbiochem 6502; host or cells: bovine pancreas
T1 sequence (P00760 24-246): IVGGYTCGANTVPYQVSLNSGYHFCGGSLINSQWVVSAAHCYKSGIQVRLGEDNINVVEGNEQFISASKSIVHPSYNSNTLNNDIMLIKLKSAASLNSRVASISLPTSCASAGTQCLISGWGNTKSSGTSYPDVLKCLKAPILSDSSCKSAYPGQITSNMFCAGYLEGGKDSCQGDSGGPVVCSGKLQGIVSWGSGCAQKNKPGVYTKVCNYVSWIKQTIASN
Method: (§1) Reagent strips were made according to the following procedure: Filter paper (240 C grade from Ahlstrom Inc.) was saturated with the first dip solution and dried at ambient temperature for 2 hours, then at 110° C. for 5 minutes. The resultant paper was saturated with the second dip solution and dried for about 1 minute at 60° C. to form the completed, white reagent paper. The paper was then cut into pads, which were 0.25 inch×0.25 inches square.
(§2) A. Composition of the First Dip:
• a. Water (24.55 mL) • b. Ethylene glycol bis (β-aminoethyl ether) N,N,N′,N′-tetra-acetic acid (EGTA) (0.06 g) • c. Plasdone (PVP K30 from Sigma-Aldrich) (0.876 g) • d. MgSO4 (1.08 g) B. Composition of the Second Dip: • a. Acetone (9.3 mL) • b. Acetic acid (0.108 mL) • c. Example 5 trypsin substrate (7-(Nα-tosyl-NG-nitro-L-argininyloxy)-4-methylcoumarin, 5.0 mg)
Identical pads were separately wetted with 25 μL portions of two different test solutions and viewed under long wavelength (365 nm) ultraviolet light illumination. One test solution was 50 mM pH=7 phosphate buffer (control solution) and the second was 50 mM pH=7 phosphate buffer containing 10,000 U/mL of bovine pancreatic trypsin (test solution).

trypsin = molecular target: T2, trypsin (Bos taurus, UniProt P00760); assay: Modified liquid assay with reagent pads, rate of fluorescent emission increase; format: biochemical, bovine; conditions: pH=7 buffer, excitation 335 nm
T2 sequence (P00760 24-246): T1 sequence (P00760 24-246)
Method: Trypsin concentrations may be instrumentally determined with the reagent pads in a modified liquid assay. Three reagent pads are extracted with 2.0 mL of 50 mM pH=7 buffer containing 0-20 u/mL of trypsin. Fluorescent emission at 385 nm is measured with a Perkin-Elmer Model LS-5 fluorescence spectrophotometer using excitation at 335 nm, and is reported in luminescence units (LU). The rate of increase of emission at 385 nm was determined graphically from the plot of LU vs. time output by the instrument.

[2] = molecular target: T1, Bovine Pancreatic Trypsin; assay: Dry-phase analytical element (reagent strip) for UTI measurement, decode from reflectance; format: biochemical; conditions: reflectance at 15 and 60 seconds; for decode, Negative Sample: Negative Sample = Water, substrate 1.25 mM in second dip; for decode, Positive Sample: Positive Sample = Water with 200 IU/mL urine trypsin inhibitor (ulinastatin)
Method: Reagent strips were made according to the following procedure: Filter paper (240 C grade from Ahlstrom Inc.) was saturated with the first dip solution and dried for 2 minutes at 80° C. and 4 minutes at 60° C. The resultant paper was then saturated with the second dip solution and dried for 6 minutes at 50° C. to form the completed reagent paper. Adhesive ([…] from 3M Inc.) was applied to the reagent paper and it was affixed to a polystyrene handle in the form of pads, which were 0.20 inch×0.20 inches square. A. Composition of the First Dip: • a. Water • b. Bicine Buffer (600 mM) • c. Ethylene glycol bis (β-aminoethyl ether) N,N,N',N'-tetra-acetic acid (EGTA) (5.1 mM) • d. Plasdone (PVP K30 from Sigma-Aldrich) (1.75% by weight) • e. MgSO4 (660 mM) • f. Bovine Pancreatic Trypsin (Calbiochem Cat. No. 6502) (272 units/mL) • g. Adjust to pH 8.00±0.02 with 1N NaOH. B. Composition of the Second Dip: • a. Acetone • b. […] KOK-10071 polymer (from Bayer Corporation) (0.1% by weight) Data were obtained by dipping the strips into the samples set out in Table 1 and placing them in a […] 50 spectrometer from Bayer Diagnostics to collect data at 15 and 60 seconds after dipping. Decode values were calculated using the equation: decode={[(B15+G15)-(B60+G60)]/(B15+G15)}*1000 Where: • B15 is the reflectance of the blue wavelength at 15 seconds, • B60 is the reflectance of the blue wavelength at 60 seconds, • G15 is the reflectance of the green wavelength at 15 seconds, and • […] is the reflectance of the green wavelength at 60 seconds.

[3] = molecular target: T1, Bovine Pancreatic Trypsin; assay: Dry-phase analytical element for trypsin detection, colour with MMBD diazonium salt; format: biochemical; conditions: within one minute
Method: as §1, §2
• a. Water (25.0 mL) • b. Ethylene glycol bis (β-aminoethyl ether) N,N,N′,N′-tetra-acetic acid (EGTA) (0.06 g) • c. Plasdone (PVP K30 from Sigma-Aldrich) (0.438 g) • d. MgSO4 (1.08 g) B. Composition of the Second Dip: • a. Acetone (7.75 mL) • b. Example 3 trypsin substrate (4-(Nα-tosyl-NG-nitro-L-argininyloxy)-2-phenyl-5H-thiazole, 3.1 mg) • c. 2-Methoxy-4-morpholinobenzene diazonium chloride, zinc chloride double salt (MMBD) (diazonium coupling agent) (2.5 mg)
Identical pads were separately wetted with 25 μL portions of two different test solutions. One test solution was 50 mM pH=8 phosphate buffer (control solution) and the second was 50 mM pH=8 phosphate buffer containing 10,000 U/mL of bovine pancreatic trypsin (test solution).

SMILES: Cc1ccc(S(=O)(=O)N[C@@H](CCCNC(=N)N[N+](=O)[O-])C(=O)Oc2ccc3c(C)cc(=O)oc3c2)cc1 [Example 5, 7-(Nα-tosyl-NG-nitro-L-argininyloxy)-4-methylcoumarin]
pad fluorescence, test solution ([1]; 50 mM pH=7 phosphate buffer containing 10,000 U/mL bovine pancreatic trypsin): fluorescing brightly | pad fluorescence, control solution ([1]; 50 mM pH=7 phosphate buffer without trypsin): remained dull and non-fluorescent | Rate of 385 nm emission increase (trypsin; Trypsin concentration 0 U/mL): 0.36 LU/mm | Rate of 385 nm emission increase (trypsin; Trypsin concentration 5 U/mL): 1.21 LU/mm and 2.35 LU/mm | Rate of 385 nm emission increase (trypsin; Trypsin concentration 10 U/mL): 2.38 LU/mm and 2.08 LU/mm | Rate of 385 nm emission increase (trypsin; Trypsin concentration 20 U/mL): 3.75 LU/mm

SMILES: Cc1ccc(S(=O)(=O)N[C@@H](CCCNC(N)=N[N+](=O)[O-])C(=O)Oc2c[nH]c(-c3ccccc3)c2)cc1 [Example 1, 3-(Nα-tosyl-NG-nitro-L-argininyloxy)-5-phenylpyrrole]
decode, Negative Sample [2]: 474 | decode, Positive Sample [2]: 212

decode, Negative Sample [2]: 61 | decode, Positive Sample [2]: 30
SMILES: Cc1ccc(S(=O)(=O)N=C(N)NCCC[C@H](NS(=O)(=O)c2ccc(C)cc2)C(=O)Oc2c[nH]c(-c3ccccc3)c2)cc1 [Example 4, 3-(Nα-tosyl-NG-tosyl-L-argininyloxy)-5-phenylpyrrole]

SMILES: Cc1ccc(S(=O)(=O)NC(CCCN=C(N)N[N+](=O)[O-])C(=O)Oc2c[nH]c3ccccc23)cc1 [Example 2, 3-(Nα-tosyl-NG-nitro-L-argininyloxy)indole]
decode, Negative Sample [2]: 422 | decode, Positive Sample [2]: 168

SMILES: Cc1ccc(S(=O)(=O)N[C@@H](CCCNC(N)=N[N+](=O)[O-])C(=O)Oc2csc(-c3ccccc3)n2)cc1 [Example 3, 4-(Nα-tosyl-NG-nitro-L-argininyloxy)-2-phenyl-5H-thiazole]
pad colour, test solution ([3]; 50 mM pH=8 phosphate buffer containing 10,000 U/mL bovine pancreatic trypsin): turned blue | pad colour, control solution ([3]; 50 mM pH=8 phosphate buffer without trypsin): remained white
